This is an account of results in patent US20240398783A1, “Compounds and Pharmaceutical Compositions Comprising Inhibitors of Amyloid Peptide Interactions with Glycosaminoglycans, Methods of Treatment and Use Thereof” (Gismo Therapeutics, Inc., priority 2021, published 2024).

Where a name gives a salt, the structure may show the parent alone.

This assay has as its target T1, SAA binding to heparin (HS-GAG) (Homo sapiens, UniProt P0DJI8).
T1 sequence (P0DJI8 19-122): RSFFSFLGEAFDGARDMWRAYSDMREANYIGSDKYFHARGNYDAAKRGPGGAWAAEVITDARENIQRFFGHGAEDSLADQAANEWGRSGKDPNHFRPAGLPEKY
In words: Inhibition of SAA binding to immobilized heparin-BSA (ELISA). The arrangement: species or system porcine. The following applies: read-out: Serum Amyloid A/Heparin Activity (% inhibition class). The method, then: Porcine intestinal mucosa heparin conjugated to Bovine Serum Albumin (Heparin-BSA) was prepared as described (Najjam, S. et al. 1997, Cytokine 12, 1013-1022). Heparin is a sulfated HS-GAG and is commonly used as a HS-GAG in biochemical and binding assays (Lindahl, U. and Kjellen, L. (2013) ibid). Heparin-BSA at 0.01 mg/ml in Phosphate Buffered Saline (PBS; pH 7.4) was added to a 96 well polystyrene ELISA plate (NUNC Cat. No. 449824; 100 μl per well) and incubated Over Night (ON) at 4 degrees Celsius. For negative controls, ELISA plates were coated with BSA instead of Heparin-BSA, using the same procedure. Following the incubation, the plate was washed consecutively, by immersion, with de-ionized water and PBS (pH 7.4). The ELISA plate was then blocked with nonfat milk (2%, 200 μl per well) for 2 hours at Room Temperature (RT) with gentle shaking. Following blocking, the plate was washed with de-ionized water then PBS (pH 7.4). GBAPs were dissolved and diluted in PBS (pH 6.5, supplemented with 0.1% BSA) at desired concentrations, added to the ELISA plates containing immobilized Heparin-BSA (100 μl per well) and incubated for 2 hours at RT with gentle shaking. Following incubation, the plate was washed with de-ionized water and three times with PBS (pH 6.5) plus Tween. Bound GBAP was detected by a monoclonal antibody specific for that GBAP, followed by incubation with secondary antibody conjugated to horseradish peroxidase (HRP). Antibody was diluted in PBS (pH 6.5 supplemented with 1% BSA). Following each incubation with antibody, the plate was washed with de-ionized water and three times with PBS (pH 6.5) wash buffer containing 0.1% Tween. The peroxidase substrate chromogen, TMB (Dako Cat. No. S1599) was added (100 μl per well) to the ELISA plate and incubated at room temperature. After 5 minutes ELISA Stop Solution (hydrochloric acid 1N, sulfuric acid 3N) was added (100 μl per well) to stop the peroxidase catalyzed colorimetric reaction. The Optical Density of the samples was measured at 450 nm using an ELISA plate reader (BioTek Synergy H1). Following color development, the % inhibition compared to control (BSA-coated plates) was determined. IC-50s were calculated using GraphPad Prism software.
The assay was performed as described in Example 43, with the following modifications. Following to coating the plates with Heparin-BSA, plates were washed as described. The compounds were dissolved in DMSO at 10 mM final concentration and further diluted prior to assay. DMSO concentration in the screening well was up to 2%. Individual compounds were co-incubated with SAA on plates containing immobilized heparin. Serum amyloid A (SAA) from PeProtech (NJ, USA, Cat. No. 300-53) was dissolved in DMSO, quickly frozen and kept in aliquots at −80 degrees Celsius. SAA dissolved in Tris buffer (pH 6.5, supplemented with BSA, 0.1%) was added to the ELISA plate (100 μl per well) and incubated for 2 hours at RT with gentle shaking. Following the incubation, the plate was washed with de-ionized water and three times with Tris Buffered Saline (TBS, pH 6.5) plus Tween. Bound SAA was detected by Anti-SAA Monoclonal Antibody (R&D System Cat. No. MAB30192), followed by secondary anti-IgG antibody conjugated to HRP (R&D System, Cat. No. HAF007). Antibody was diluted in TBS antibody buffer (pH6.5 supplemented with 1% BSA). Following each incubation with antibody, the plate was washed with de-ionized water and three times with TBS (pH6.5) wash buffer containing 0.1% Tween. Following to color development with TMB, as described in Example 43, the Optical Density of the samples was measured at 450 nm using an ELISA plate reader. Following color development, the % inhibition compared to control (no compound, DMSO control) for every compound was determined.
As described in Example 43, Heparin in the form of Heparin-BSA conjugate is used as a source of HS-GAG. For each compound IC-50 value in SAA—heparin-BSA binding assay is shown in μM (micromolar). […]
In the case of `COc1cc(Nc2cncc3cc(Cl)ccc23)cnc1-n1cnc(C)c1C` [Compound 33, 7-chloro-N-(6-(4,5-dimethyl-1H-imidazol-1-yl)-5-methoxypyridin-3-yl)isoquinolin-4-amine phosphoric acid salt], the inhibition at 30 µM is < 30%.

As to `Cc1cn(-c2ccc(Nc3cncc4cc(Cl)ccc34)cn2)c(C)n1` [Compound 37, 7-chloro-N-(6-(2,4-dimethyl-1H-imidazol-1-yl)pyridin-3-yl)isoquinolin-4-amine phosphoric acid salt], the inhibition at 30 µM was < 30%.

Turning to `CN1CCN(c2cc(Nc3ccnc4cc(Cl)ccc34)ccn2)CC1` [Compound 20, 7-chloro-N-(2-(4-methylpiperazin-1-yl)pyridin-4-yl)quinolin-4-amine], the inhibition at 30 µM is > 30%.

On to `COc1cc2nccc(NN=Cc3ccc(-n4ccnc4)c(C)c3)c2cc1OC` [Compound 11, 4-(2-(4-(1H-imidazol-1-yl)-3-methylbenzylidene)hydrazineyl)-6,7-dimethoxyquinoline hydrochloride], for which the inhibition at 30 µM was < 30%.
